This passage reports Kb and Ki results from ChEMBL document CHEMBL1126235, “Benzothiadiazine dioxides: A new class of potent angiotensin-II (AT1) receptor antagonists” (Bioorg Med Chem Lett, 1992).

For one assay, the species on record is Oryctolagus cuniculus. As to the kind of experiment: Compound was tested for functional antagonism of angiotensin-II induced contraction in isolated rabbit aorta.
Assay [1] addresses T1, Angiotensin II receptor (AT-1) type-1 (Rattus norvegicus, UniProt P29089+P25095).
T1 sequence (P29089 whole entry): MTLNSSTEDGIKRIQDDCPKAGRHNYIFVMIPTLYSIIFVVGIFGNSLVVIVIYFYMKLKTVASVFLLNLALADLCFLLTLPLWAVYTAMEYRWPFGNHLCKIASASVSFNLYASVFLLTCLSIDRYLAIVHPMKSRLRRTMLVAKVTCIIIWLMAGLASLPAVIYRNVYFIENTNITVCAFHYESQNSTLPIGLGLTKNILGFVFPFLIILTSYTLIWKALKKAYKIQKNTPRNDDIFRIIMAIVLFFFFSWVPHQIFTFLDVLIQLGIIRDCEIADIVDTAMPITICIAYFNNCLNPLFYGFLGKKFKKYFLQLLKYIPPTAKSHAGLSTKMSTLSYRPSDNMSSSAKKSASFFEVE
T1 sequence (P25095 whole entry): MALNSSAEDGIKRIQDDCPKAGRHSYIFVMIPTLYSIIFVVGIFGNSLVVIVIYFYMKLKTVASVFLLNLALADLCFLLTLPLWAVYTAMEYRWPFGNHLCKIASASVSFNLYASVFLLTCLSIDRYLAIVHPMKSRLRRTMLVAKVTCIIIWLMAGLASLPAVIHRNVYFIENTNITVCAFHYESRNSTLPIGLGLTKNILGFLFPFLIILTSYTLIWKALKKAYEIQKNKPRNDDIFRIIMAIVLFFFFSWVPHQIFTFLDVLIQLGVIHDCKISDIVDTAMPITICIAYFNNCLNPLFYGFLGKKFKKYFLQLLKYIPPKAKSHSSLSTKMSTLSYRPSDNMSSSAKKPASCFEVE
As to the kind of experiment: Binding against Angiotensin II receptor in a radioligand binding assay using [125I]-Sar1-Ile8 angiotensin-II as radioligand in rat adrenal cortical membranes. It counts as cell membranes.

Compound `CCSC1=NS(=O)(=O)c2cc(C)cnc2N1Cc1ccc(-c2ccccc2-c2nn[nH]n2)cc1` showed a Kb in the assay filed under Oryctolagus cuniculus of 0.6 nM. For the same compound, the Ki in assay [1] worked out at 0.8 nM.

In the assay filed under Oryctolagus cuniculus, `CCCSC1=NS(=O)(=O)c2cc(C)cnc2N1Cc1ccc(-c2ccccc2-c2nn[nH]n2)cc1` yielded a Kb of 11 nM. Moreover, in assay [1], the Ki is listed as 0.6 nM.

As for `CCCSC1=Nc2ccccc2S(=O)(=O)N1Cc1ccc(-c2ccccc2-c2nn[nH]n2)cc1`, the Kb in the assay listed under Oryctolagus cuniculus is 640 nM. The Ki in assay [1] worked out at 57 nM.

Consider `CCCCC1=NS(=O)(=O)c2ccccc2N1Cc1ccc(-c2ccccc2C(=O)O)cc1`, for which the Kb in the assay filed under Oryctolagus cuniculus was 130 nM. The Ki in assay [1] worked out at 550 nM.

As to `CCCCC1=Nc2ccccc2S(=O)(=O)N1Cc1ccc(-c2ccccc2C(=O)O)cc1`, the Kb in the assay filed under Oryctolagus cuniculus was found to be 160 nM. The compound further yielded a Ki in assay [1] of 230 nM.

Compound `CCCSC1=NS(=O)(=O)c2ccc(C(=O)O)cc2N1Cc1ccc(-c2ccccc2-c2nn[nH]n2)cc1` registered a Kb in the assay listed under Oryctolagus cuniculus of 0.08 nM. This compound also gave a Ki in assay [1] of 8.5 nM.

In the assay filed under Oryctolagus cuniculus, `CCCSC1=NS(=O)(=O)c2ccccc2N1Cc1ccc(-c2ccccc2C(=O)O)cc1` registered a Kb of 20 nM. Further, the Ki in assay [1] is given as 180 nM.

In the assay listed under Oryctolagus cuniculus, `CCCSC1=Nc2ccccc2S(=O)(=O)N1Cc1ccc(-c2ccccc2C(=O)O)cc1` displayed a Kb of 1200 nM. The compound also came in with an inhibition constant (Ki) in assay [1] of 4900 nM.

In the assay filed under Oryctolagus cuniculus, `CCCSC1=NS(=O)(=O)c2ccccc2N1Cc1ccc(-c2ccccc2-c2nn[nH]n2)cc1` registered a Kb of 93 nM. Besides, the Ki in assay [1] is 4.8 nM.

As for `CCCCc1nc(Cl)c(CO)n1Cc1ccc(-c2ccccc2-c2nnn[nH]2)cc1` [LOSARTAN], the Kb in the assay filed under Oryctolagus cuniculus was 2.6 nM.
